Reference: patent US20230165867A1 (CHENGDU BAIYU PHARMACEUTICAL CO., LTD., priority 2020, published 2023)
Where two headings read alike, the source gives them in different places.

Assays:
DNA-PK kinase = molecular target: T1, DNA-PK kinase (Homo sapiens, UniProt P78527); test: Inhibition assay of DNA-PK kinase (Promega kit, ADP-Glo chemiluminescence); assay type: biochemical; conditions: 50 µM ATP, 37° C., 60 min; read-out: IC50 (nM), inhibitory activity on DNA-PK kinase
T1 construct: purchased Promega V4107
Method: The inhibitory activity of the compounds on DNA-PK kinase was measured by using a DNA-PK kinase assay kit (purchased from Promega, Cat.#: V4107, Lot: 0000366495). The results were quantified by chemiluminescence, and the detailed experimental protocol was as follows: • i. An ADP-fluorescence standard curve over a range of concentrations was plotted according to the kit instructions; • ii. […] The mixtures were mixed well, centrifuged (1000 rpm, 30 s), and incubated at 37° C. for 60 min; • iv. 5 µL of ADP-Glo™ Reagent was added to stop the reaction, which was then mixed well, centrifuged (1000 rpm, 30 s), and incubated at room temperature for 40 min; • v. 10 µL Kinase Detection Reagent was added, and the mixture was mixed well by shaking, centrifuged (1000 rpm, 30 s), and incubated at room temperature for 30 min; • vi. The […] was measured by using a microplate reader (Thermo fisher, Varioskan LUX).

[1] = Pharmacokinetic assay in ICR mice (i.v. and p.o.); assay type: in vivo; conditions: mouse, plasma, male ICR mice; for half-life: read-out: T½ (converted); for bioavailability: po 10 mg/kg vs iv 1 mg/kg
Method: ICR mice were purchased from Beijing Vital River Laboratory Animal Technology Co., Ltd.
3.2 Experimental procedure • (1) Healthy male ICR mice (18-22 g) were prepared, with 18 mice for each compound. The mice were divided into 2 groups (an i.v. group and a p.o. group), with 9 mice per group. 3 mice were picked for blood collection at each time point. • (2) After the animals were fasted overnight (with free access to water), the compound of the present invention dissolved (or suspended) in a solvent of 5% DMSO and 95% 30% HP-β-CD (v:v) was administered via the tail vein (i.v., 1 mg/kg) or intragastrically (p.o., 10 mg/kg), respectively. • (3) For the i.v. group, 0.1 mL blood was collected from the submandibular vein 5 min, 15 min, 0.5 h, 1 h, 2 h, 4 h, 8 h, 12 h, and 24 h after administration, respectively, anticoagulated with EDTA-K2, and centrifuged at 4° C. for 5 min to obtain plasma, which was stored at -20° C. until testing. (4) For the p.o. group, 0.1 mL blood was collected from the submandibular vein before administration and 15 min, 0.5 h, 1 h, 2 h, 4 h, 6 h, 8 h, 12 h, and 24 h after administration, and treated in the same manner as that for the intravenous group. • (5) The concentration of the compound of the present invention in plasma was measured by LC/MS/MS. • (6) Calculation and fitting were performed with Analyst 1.6 from AB Company, and the results are shown in Table 3.

| SMILES | IC50 (DNA-PK kinase) | other results |
| --- | --- | --- |
| COC(=O)c1cc(C)c(Nc2ncc3c(n2)n(C2CCOCC2)c(=O)n3C)cc1C#N [Compound 45] | 13.5 nM | – |
| Cc1cc(C(=O)O)c(C#N)cc1Nc1ncc2c(n1)n(C1CCOCC1)c(=O)n2C [Compound 46, 2-cyano-5-methyl-4-((7-methyl-8-oxo-9-(tetrahydro-2H-pyran-4-yl)-8,9-dihydro-7H-purin-2-yl)amino)benzoic acid] | 0.99 nM | – |
| Cc1cc(C(N)=O)c(C#N)cc1Nc1ncc2c(n1)n(C1CCOCC1)c(=O)n2C [Compound 47, 2-cyano-5-methyl-4-((7-methyl-8-oxo-9-(tetrahydro-2H-pyran-4-yl)-8,9-dihydro-7H-purin-2-yl)amino)benzamide] | 3.69 nM | – |
| Cc1cc(S(C)(=O)=O)ccc1Nc1ncc2c(n1)n(C1CCOCC1)c(=O)n2C [Compound 1, 7-Methyl-2-((2-methyl-4-(methylsulfonyl)phenyl)amino)-9-(tetrahydro-2H-pyran-4-yl)-7,9-dihydro-8H-purin-8-one] | 10.1 nM | – |
| Cc1sc(C(=O)O)cc1Nc1ncc2c(n1)n(C1CCOCC1)c(=O)n2C [Compound 41] | – | AUC ([1]; iv, 1 mg/kg): 357 ng·h/mL; half-life ([1]; iv, 1 mg/kg): 33 min; bioavailability [1]: 42.3%; AUC ([1]; po, 10 mg/kg): 1500 ng·h/mL; Cmax ([1]; po, 10 mg/kg): 2710 ng/mL; half-life ([1]; po, 10 mg/kg): 293 min |
| [2H]C([2H])([2H])n1c(=O)n(C2CCOCC2)c2nc(Nc3ccc(C#N)cc3C)ncc21 (single isomer, unassigned) [Compound 6, 3-Methyl-4-((7-(methyl-d3)-8-oxo-9-(tetrahydro-2H-pyran-4-yl)-8,9-dihydro-7H-purin-2-yl)amino)benzonitrile] | – | AUC ([1]; iv, 1 mg/kg): 82.4 ng·h/mL; half-life ([1]; iv, 1 mg/kg): 17.9 min; bioavailability [1]: 179%; AUC ([1]; po, 10 mg/kg): 1480 ng·h/mL; Cmax ([1]; po, 10 mg/kg): 1220 ng/mL; half-life ([1]; po, 10 mg/kg): 57.8 min |

The next lines start with results.

| IC50 (DNA-PK kinase) | SMILES | other results |
| --- | --- | --- |
| 6.75 nM | Cc1cc(C(N)=O)c(F)cc1Nc1ncc2c(n1)n(C1CCOCC1)c(=O)n2CC(F)F [Compound 106, 4-((7-(2,2-difluoroethyl)-8-oxo-9-(tetrahydro-2H-pyran-4-yl)-8,9-dihydro-7H-purin-2-yl)amino)-2-fluoro-5-methylbenzamide] | – |
| 34.1 nM | COC(=O)c1cc(C)c(Nc2ncc3c(n2)n(C2CCOCC2)c(=O)n3C)cc1F [Compound 51] | – |
| 12.7 nM | Cc1cc(C(N)=O)c(O)cc1Nc1ncc2c(n1)n(C1CCOCC1)c(=O)n2C [Compound 50, 2-Hydroxy-5-methyl-4-((7-methyl-8-oxo-9-(tetrahydro-2H-pyran-4-yl)-8,9-dihydro-7H-purin-2-yl)amino)benzamide] | – |
| 50.5 nM | Cc1cc(C(N)=O)c(F)cc1Nc1ncc2c(n1)n(C1CCOCC1)c(=O)n2C(C)C [Compound 63, 2-Fluoro-4-((7-isopropyl-8-oxo-9-(tetrahydro-2H-pyran-4-yl)-8,9-dihydro-7H-purin-2-yl)amino)-5-methylbenzamide] | – |
| 2.2 nM | Cc1cc(C#N)ccc1Nc1ncc2c(n1)n(C1CC3COCC3C1)c(=O)n2C (stereo not drawn) [Compound 100, 4-((9-(hexahydro-1H-cyclopenta[c]furan-5-yl)-7-methyl-8-oxo-8,9-dihydro-7H-purin-2-yl)amino)-3-methylbenzonitrile] | – |
| 2.44 nM | Cc1cc(C(N)=O)c(F)cc1Nc1ncc2c(n1)n(C1CCCC(C)(O)C1)c(=O)n2C (stereo not drawn) [Compound 91, 2-Fluoro-4-((9-(3-hydroxy-3-methylcyclohexyl)-7-methyl-8-oxo-8,9-dihydro-7H-purin-2-yl)amino)-5-methylbenzamide] | – |
| 0.02 nM | Cc1cc(C(N)=O)c(F)cc1Nc1ncc2c(n1)n(C1CCC(C)(C#N)CC1)c(=O)n2C (stereo not drawn) [Compound 92, 4-((9-(4-cyano-4-methylcyclohexyl)-7-methyl-8-oxo-8,9-dihydro-7H-purin-2-yl)amino)-2-fluoro-5-methylbenzamide] | – |
| 5.54 nM | Cc1cc(C(N)=O)c(F)cc1Nc1ncc2c(n1)n(C1CCOCC1)c(=O)n2CCF [Compound 109, 2-Fluoro-4-((7-(2-fluoroethyl)-8-oxo-9-(tetrahydro-2H-pyran-4-yl)-8,9-dihydro-7H-purin-2-yl)amino)-5-methylbenzamide] | – |
